Series [1] relates to full length SMN2 minigene mRNA. In words: SMN2 minigene mRNA splicing RT-qPCR assay in cultured cells. The series is classed as cell-based, human. The conditions noted are these: Homo sapiens, HEK293-H; HEK293H cells stably transfected with SMN2-A minigene, 24 hours, 7-point concentration curve; read-out: EC1.5x minigene. From the text: The term “EC1.5x concentration for production of full length SMN2 minigene mRNA” (or “EC1.5x minigene”) is defined as that concentration of test compound that is effective in increasing the amount of full length SMN2 minigene mRNA to a level 1.5-fold greater relative to that in vehicle-treated cells.
The reverse transcription-quantitative PCR-based (RT-qPCR) assay is used to quantify the level of the full length SMN2 minigene (referred to herein by the term “FL SMN2mini”) mRNA containing SMN2 exon 7 in a HEK293H cell line stably transfected with said minigene and treated with a test compound. Materials used and respective sources are listed below in Table 1.
The SMN2-A minigene construct was prepared as described in International Patent Application WO2009/151546A1 page 145 paragraph [00400] to page 147 paragraph [00412](incl. FIG. 1 and FIG. 3 therein).
HEK293H cells stably transfected with the SMN2-A minigene construct (10,000 cells/well) are seeded in 200 μL of cell culture medium (DMEM plus 10% FBS, with 200 μg/mL hygromycin) in 96-well flat-bottom plates and the plate is immediately swirled to ensure proper dispersal of cells and the formation of an even monolayer of cells. Cells are allowed to attach for 6 hours. Test compounds are serially diluted 3.16-fold in 100% DMSO to generate a 7-point concentration curve. A solution of test compound (1 μL, 200× in DMSO) is added to each cell-containing well and the plate is incubated for 24 hours in a cell culture incubator (37° C., 5% CO2, 100% relative humidity). 2 replicates are prepared for each test compound concentration. The cells are then lysed in the Cells-To-Ct lysis buffer and the lysate is stored at −80° C.
Full length SMN2-A minigene and GAPDH mRNA are quantified using the primers and probes referenced in WO2014/209841A2 on page 80 in Table 1. Primer SMN Forward A (SEQ ID NO.1) hybridizes to a nucleotide sequence in exon 7 (nucleotide 22 to nucleotide 40), primer SMN Reverse A (SEQ ID NO.2) hybridizes to a nucleotide sequence in the coding sequence of Firefly luciferase, SMN Probe A (SEQ ID NO.3) hybridizes to a nucleotide sequence in exon 7 (nucleotide 50 to nucleotide 54) and exon 8 (nucleotide 1 to nucleotide 21). The combination of these three oligonucleotides detects only SMN1 or SMN2 minigenes (RT-qPCR) and will not detect endogenous SMN1 or SMN2 genes.
The SMN forward and reverse primers are used at final concentrations of 0.4 μM. The SMN probe is used at a final concentration of 0.15 μM. The GAPDH primers are used at final concentrations of 0.2 μM and the probe at 0.15 μM.
The SMN2-minigene GAPDH mix (15 μL total volume) is prepared by combining 7.5 μL of 2×RT-PCR buffer, 0.4 μL of 25×RT-PCR enzyme mix, 0.75 μL of 20×GAPDH primer-probe mix, 4.0075 μL of water, 2 μL of 10-fold diluted cell lysate, 0.06 μL of 100 μM SMN forward primer, 0.06 μL of 100 μM SMN reverse primer, and 0.225 μL of 100 μM SMN probe.
PCR is carried out at the following temperatures for the indicated time: Step 1: 48° C. (15 min); Step 2: 95° C. (10 min); Step 3: 95° C. (15 sec); Step 4: 60° C. (1 min); then repeat Steps 3 and 4 for a total of 40 cycles.
Each reaction mixture contains both SMN2-A minigene and GAPDH primers/probe sets (multiplex design), allowing simultaneous measurement of the levels of two transcripts.
The increase in the abundance of the FL SMN2mini mRNA relative to that in cells treated with vehicle control is determined from real-time PCR data using a modified ΔΔCt method (as described in Livak and Schmittgen, Methods, 2001, 25:402-8). The amplification efficiency E is calculated from the slope of the amplification curve for FL SMN2mini and GAPDH individually. The abundance of FL SMN2mini and GAPDH mRNA are then calculated as (1+E)^−Ct, where Ct is the threshold value for each amplicon. The abundance of FL SMN2mini mRNA is normalized to GAPDH mRNA abundance. […]

Another series can be described thus: Solubility. The class given is physicochemical.
Series [2] in a line: Stability of olesoxime (solid state, oral suspension in sesame oil). The class given is physicochemical. The conditions noted are these: 25° C./60% RH. As to the method:
Examples of compositions comprising olexosime are described in US2010099652A1. […] Olesoxime has low aqueous solubility (less than 5 μg/ml) across the physiological pH range. It is freely soluble or soluble in a range of non-aqueous solvents.
7.5 g crystalline olesoxime powder (particle size distribution with d90 value 70-90 μm) was suspended in 75 ml (61.6 g) sesame oil (refined) as vehicle through agitation (e.g. shaking) to yield a homogeneous suspension (final olesoxime concentration 100 mg/ml).

In series [3] the test system is patients with Types 2 and 3 SMA. The conditions noted are these: two-year treatment period, compared with approximately two-point decline in the placebo arm; cited from earlier work.
A further series has as its system neonatal rats. The settings on record: cited from earlier work.
The test system of a further series is adult mice. The conditions noted are these: cited from earlier work.
The subject of series [4] is splicing events and expression levels of genes. The settings on record: Palacino et al, Nat Chem Biol. 2015, cited from earlier work.

In brackets after ≈: the same amount, converted by molar mass. Like-named read-outs stand apart in the source and are kept apart here. Bounds are passed on as bounds.

On to `Cc1cn2nc(-c3cc(=O)n4cc(N5CCNC(C)(C)C5)cc(C)c4n3)ccc2n1` [Example 36, 7-(3,3-dimethylpiperazin-1-yl)-9-methyl-2-(2-methylimidazo[1,2-b]pyridazin-6-yl)pyrido[1,2-a]pyrimidin-4-one], for which the EC (1.5-fold increase) in series [1] turned out to be 0.005 µM.

`Cc1cn2nc(-c3cc(=O)n4cc(N5C[C@H](C)N[C@@H](C)C5)ccc4n3)cc(C)c2n1` [Example 29, 2-(2,8-dimethylimidazo[1,2-b]pyridazin-6-yl)-7-[(3S,5S)-3,5-dimethylpiperazin-1-yl]pyrido[1,2-a]pyrimidin-4-one]: the EC (1.5-fold increase) in series [1] is 0.0003 µM.

As for `CC(C)CCC[C@@H](C)[C@H]1CC[C@H]2[C@@H]3CCC4=C/C(=N/O)CC[C@]4(C)[C@H]3CC[C@]12C` (stereo in doubt) [Olesoxime, Cholest-4-en-3-one oxime], the solubility in “Solubility” (aqueous medium, aqueous buffer, across the physiological pH range, read-out: aqueous solubility) was less than 0.005 mg/mL; in “Solubility” (sesame oil, oil or lipid, read-out: solubility in sesame oil) it was roughly 35 mg/mL (≈ 87.6 mM). Moreover, in series [2], the “stable in the solid state” value was greater than 36 months. Further, in series [3], the “motor function (motor function measure, MFM)” value is reported as “maintenance of motor function”. Further, the “effect on motor neurons after nerve lesion” value with neonatal rats was “rescues motor neurons from cell death”. The “effect on nerve regeneration after nerve crush” value in the series with adult mice is given as “promotes nerve regeneration”.

Regarding `Cc1cn2nc(-c3cc(=O)n4cc(N5CCN[C@H](C)C5)cc(C)c4n3)ccc2n1` [Example 34, 9-methyl-2-(2-methylimidazo[1,2-b]pyridazin-6-yl)-7-[(3R)-3-methylpiperazin-1-yl]pyrido[1,2-a]pyrimidin-4-one], the EC (1.5-fold increase) in series [1] turned out to be 0.0009 µM.

Consider `Cc1cn2nc(-c3cc(=O)n4cc(N5CCNC6(CC6)C5)cc(C)c4n3)cc(C)c2n1` [Example 28, 7-(4,7-diazaspiro[2.5]octan-7-yl)-2-(2,8-dimethylimidazo[1,2-b]pyridazin-6-yl)-9-methyl-pyrido[1,2-a]pyrimidin-4-one], for which, in series [1], the EC (1.5-fold increase) is 0.005 µM.

Turning to `CC1(C)CC(Oc2ccc(-c3ccc(-c4cn[nH]c4)cc3O)nn2)CC(C)(C)N1` [NVS-SM1], the “candidate events where splicing changed in response to treatment” value in series [4] is reported as 39. For the same compound, in series [4] (expression level), the “number of genes changed at greater than ±2-fold (p<0.05)” value was 175.

For `Cc1cn2nc(-c3cc(=O)n4cc(N5CCN[C@@H](C)C5)cc(C)c4n3)ccc2n1` [Example 33, 9-methyl-2-(2-methylimidazo[1,2-b]pyridazin-6-yl)-7-[(3S)-3-methylpiperazin-1-yl]pyrido[1,2-a]pyrimidin-4-one], the EC (1.5-fold increase) in series [1] turned out to be 0.0005 µM.

For the compound `Cc1cn2nc(-c3cc(=O)n4cc(N5CCN[C@H](C)C5)cc(C)c4n3)cc(C)c2n1` [Example 25, 2-(2,8-dimethylimidazo[1,2-b]pyridazin-6-yl)-9-methyl-7-[(3R)-3-methylpiperazin-1-yl]pyrido[1,2-a]pyrimidin-4-one], the EC (1.5-fold increase) in series [1] was 0.0005 µM.

For `Cc1cn2nc(-c3cc(=O)n4cc(N5CCCNCC5)ccc4n3)ccc2n1` [Example 13, 7-(1,4-diazepan-1-yl)-2-(2-methylimidazo[1,2-b]pyridazin-6-yl)pyrido[1,2-a]pyrimidin-4-one], in series [1], the EC (1.5-fold increase) came out at 0.005 µM.

With `Cc1cn2nc(-c3cc(=O)n4cc(N5CCN[C@@H](C)C5)ccc4n3)cc(C)c2n1` [Example 8, 2-(2,8-dimethylimidazo[1,2-b]pyridazin-6-yl)-7-[(3S)-3-methylpiperazin-1-yl]pyrido[1,2-a]pyrimidin-4-one], in series [1], the EC (1.5-fold increase) came out at 0.0003 µM.

Consider `Cc1cn2nc(-c3cc(=O)n4cc(N5CCN6CCC[C@@]6(C)C5)ccc4n3)cc(C)c2n1` [Example 5, 7-[(8aS)-8a-methyl-1,3,4,6,7,8-hexahydropyrrolo[1,2-a]pyrazin-2-yl]-2-(2,8-dimethylimidazo[1,2-b]pyridazin-6-yl)pyrido[1,2-a]pyrimidin-4-one], for which, in series [1], the EC (1.5-fold increase) was found to be 0.0006 µM.

In the case of `Cc1cn2nc(-c3cc(=O)n4cc(N5CCNC(C)(C)C5)ccc4n3)cc(C)c2n1` [Example 22, 2-(2,8-dimethylimidazo[1,2-b]pyridazin-6-yl)-7-(3,3-dimethylpiperazin-1-yl)pyrido[1,2-a]pyrimidin-4-one], the EC (1.5-fold increase) in series [1] stood at 0.0009 µM.

Consider `Cc1cn2nc(-c3cc(=O)n4cc(N5CCN6CCC[C@H]6C5)ccc4n3)ccc2n1` [Example 15, 7-[(8aS)-3,4,6,7,8,8a-hexahydro-1H-pyrrolo[1,2-a]pyrazin-2-yl]-2-(2-methylimidazo[1,2-b]pyridazin-6-yl)pyrido[1,2-a]pyrimidin-4-one], for which the EC (1.5-fold increase) in series [1] came to 0.004 µM.

Turning to `Cc1cn2nc(-c3cc(=O)n4cc(N5CC[C@H](N6CCCC6)C5)ccc4n3)cc(C)c2n1` [Example 30, 2-(2,8-dimethylimidazo[1,2-b]pyridazin-6-yl)-7-[(3S)-3-pyrrolidin-1-ylpyrrolidin-1-yl]pyrido[1,2-a]pyrimidin-4-one], in series [1], the EC (1.5-fold increase) worked out at 0.003 µM.

As for `Cc1cn2nc(-c3cc(=O)n4cc(N5C[C@H](C)N[C@@H](C)C5)cc(C)c4n3)ccc2n1` [Example 38, 7-[(3S,5S)-3,5-dimethylpiperazin-1-yl]-9-methyl-2-(2-methylimidazo[1,2-b]pyridazin-6-yl)pyrido[1,2-a]pyrimidin-4-one], in series [1], the EC (1.5-fold increase) is 0.0003 µM.

With `Cc1cn2nc(-c3cc(=O)n4cc(N5CCN[C@@H](C)C5)cc(C)c4n3)cc(C)c2n1` [Example 24, 2-(2,8-dimethylimidazo[1,2-b]pyridazin-6-yl)-9-methyl-7-[(3S)-3-methylpiperazin-1-yl]pyrido[1,2-a]pyrimidin-4-one], the EC (1.5-fold increase) in series [1] was found to be 0.0004 µM.

As for `Cc1cn2nc(-c3cc(=O)n4cc(N5CCN[C@H](C)C5)ccc4n3)cc(C)c2n1` [Example 9, 2-(2,8-dimethylimidazo[1,2-b]pyridazin-6-yl)-7-[(3R)-3-methylpiperazin-1-yl]pyrido[1,2-a]pyrimidin-4-one], in series [1], the EC (1.5-fold increase) came to 0.0001 µM.

As for `CC[C@@H]1CN(c2ccc3nc(-c4ccc5nc(C)cn5n4)cc(=O)n3c2)CCN1` [Example 39, 7-[(3R)-3-ethylpiperazin-1-yl]-2-(2-methylimidazo[1,2-b]pyridazin-6-yl)pyrido[1,2-a]pyrimidin-4-one], the EC (1.5-fold increase) in series [1] was found to be 0.0009 µM.

The values above are taken from US11938136B2, “Compositions for treating spinal muscular atrophy” (Hoffmann-La Roche Inc., priority 2015, dated 2024).
